Experimental data from patent US20050038044A1, “Use of propionyl-carnitine or one of its pharmacologically acceptable salts for the preparation of a medicine for the treatment of la peyronie's disease” (priority 2001, published 2005).

Columns and labels:
[1] = tested on: induratio penis plastica in the chronic stage; test: Example 3: intraplaque triamcinolone acetonide versus intraplaque propionyl L-carnitine; assay type: in vivo, human
Experimental: (§1) The examples are based on a limited number of patients and therefore the analysis of the results was carried out only with regard to the fundamental characteristics of the disease, namely plaque area in mm^2 (as measured by means of dynamic colour Doppler ultrasonography) and curvature of the artificially erect penis induced by intracavernous injection of 20 μg of prostaglandin E1.
In this case […] the study population consisted of 34 patients (mean age 50, range 44-63) with induratio penis plastica in the chronic stage, who presented an irremediable intolerance to intraplaque verapamil.
17 were submitted to intraplaque infiltrations with propionyl L-carnitine 300 mg, 1 infiltration per week for 10 weeks, and 17 to intraplaque infiltrations with triamcinolone acetonide 40 mg (Kenacort® Squibb), 1 infiltration per week for 10 weeks. The variables measured were plaque area in mm^2 by dynamic colour Doppler ultrasonography and the curvature of the artificially erect penis in degrees.
The results are presented in Table 3, where the data are expressed as mean±standard deviation (S.D.).

[2] = tested on: induratio penis plastica in the early chronic stage; test: Example 2: oral tamoxifen versus intramuscular propionyl L-carnitine, randomised patients; assay type: in vivo, human
Experimental: as §1
30 subjects (mean age 50, range 42-63) with induratio penis plastica in the early chronic stage were randomised to two groups of 15 patients each. The first group was submitted to therapy with intramuscular propionyl L-carnitine 300×2 mg/day for 3 months, and the second group to therapy with oral tamoxifen 20×2 mg/day. The variables measured were plaque area (in all subjects) and penile curvature, which was present in 12 subjects per group. […] Intraplaque verapamil was not used in these patients.
The results are presented in Table 2, where the data are expressed as mean±standard deviation (S.D.).

[3] = tested on: induratio penis plastica at an advanced chronic stage; test: Example 6: oral propionyl L-carnitine versus oral acetyl L-carnitine, each plus intraplaque verapamil; assay type: in vivo, human
Experimental: 20 subjects (mean age 48, range 40-61) with induratio penis plastica at an advanced chronic stage were randomised to two groups of 10 patients each. The first group was submitted to therapy with oral propionyl L-carnitine (PLC) 1×2 g/day 3 months and intraplaque verapamil 10 mg (10 infiltrations, 1 a week), while the second group was submitted to therapy with oral acetyl L-carnitine (ALC) 1×2 g/day for 3 months+intraplaque verapamil 10 mg (10 infiltrations, 1 a week). The variables measured were plaque area by dynamic colour Doppler penile ultrasonography. In view of the limited number of subjects in the sample it was not possible to carry out any analysis of other data; in any event, the size of the plaque is the most important variable when monitoring La Peyronie's disease, since all the other symptoms depend on the extent of the plaque (Belgrano, ibid.).
The results are presented in Table 14, where the data are expressed as mean±standard deviation (S.D.).

[4] = tested on: advanced La Peyronie's disease; test: Example 4: randomised double-blind study, intraplaque verapamil plus oral propionyl L-carnitine or tamoxifen; assay type: in vivo, human; settings: curvature, plaque area, I.I.E.F. 15 score, EDV, RI
Experimental: The study was conducted according to a randomised double-blind protocol. […] The data were collected 6 months after the end of therapy when the initial history taking and semeiological examination were repeated. […] I.I.E.F. 15 score; • V. Peak systolic velocity (PSV) (cm/sec), end-diastolic velocity (EDV) (cm/sec) and the resistivity index (RI) of the right and left cavernous arteries using dynamic Doppler ultrasonography; • VI. […] Need for penis straightening surgery and/or for straightening and a prosthesis, the results being classified as presence or absence of any such need; • VIII. Side effects classified as presence or absence of side effects.

[5] = tested on: induratio penis plastica (La Peyronie's disease) at the chronic stage; test: Example 1: oral tamoxifen versus intravenous propionyl L-carnitine, randomised patients; assay type: in vivo, human
Experimental: as §1
40 subjects (mean age 52, range 44-61) with induratio penis plastica (La Peyronie's disease) at the chronic stage were randomised […] intravenous propionyl L-carnitine 300×2 mg/day for 3 months, and the second group to therapy with oral tamoxifen 20×2 mg/day. The variables measured were plaque area by means of dynamic colour Doppler ultrasonography and penile curvature, which was present in 16 patients per group. […] Intraplaque verapamil was not used in these patients.
The results are presented in Table 1, where the data are expressed as mean±standard deviation (S.D.).

[6] = tested on: chemically induced inflammation of both the skin and the arteries; settings: rats; cited from earlier work
[7] = tested on: La Peyronie's disease in the early stages; settings: oral treatment; acute and early chronic stages; cited from earlier work
[8] = after therapy, intraplaque PLC 300 mg or triamcinolone acetonide 40 mg, 1 infiltration per week for 10 weeks
[9] = after therapy, PLC intramuscular 300×2 mg/day, tamoxifen oral 20×2 mg/day, 3 months
[10] = before therapy, 12 subjects per group
[11] = after therapy, oral 1×2 g/day for 3 months + intraplaque verapamil 10 mg (10 infiltrations, 1 a week)
[12] = after therapy, PLC intravenous 300×2 mg/day, tamoxifen oral 20×2 mg/day, 3 months
[13] = before therapy, artificially erect penis, 16 patients per group

CCC(=O)O[C@H](CC(=O)[O-])C[N+](C)(C)C [PLC, propionyl L-carnitine]
Curvature [1, 8]: 14.77 degrees
Plaque area [1, 8]: 15.47 mm^2
Curvature ([1]; before therapy): 20.38 degrees
Plaque area ([1]; before therapy, mean): 26.65 mm^2
Activity on plaque area and curvature, in words ([1]; intraplaque PLC compared with intraplaque triamcinolone acetonide): significantly more active than triamcinolone acetonide
Curvature [2, 9]: 13.00 degrees
Plaque area [2, 9]: 6.47 mm^2
Curvature [2, 10]: 17.75 degrees
Plaque area ([2]; before therapy, mean): 11.1 mm^2
Reduction of plaque area and curvature of the artificially erect penis, in words ([2]; intramuscular PLC compared with oral tamoxifen): significantly greater extent than tamoxifen
Reduction of plaque area, in words ([3]; PLC plus intraplaque verapamil compared with ALC plus intraplaque verapamil): significantly greater extent than acetyl L-carnitine plus intraplaque verapamil
Plaque area [3, 11]: 7.9 mm^2
Plaque area ([3]; before therapy, mean): 16.4 + mm^2
Activity on the variables characterising the disease, in words [4]: significantly more active than combined tamoxifen and verapamil
Curvature [5, 12]: 20.06 degrees
Plaque area [5, 12]: 19.2 mm^2
Curvature [5, 13]: 25.31 degrees
Plaque area ([5]; before therapy, mean): 25.6 mm^2
Reduction of plaque area and curvature of the artificially erect penis, in words ([5]; intravenous PLC compared with oral tamoxifen): significantly greater extent than tamoxifen
Protection against chemically induced inflammation, in words [6]: capable of affording protection

CC1(C)O[C@@H]2C[C@H]3[C@@H]4CCC5=CC(=O)C=C[C@]5(C)[C@@]4(F)[C@@H](O)C[C@]3(C)[C@]2(C(=O)CO)O1 [Triamcinolone, triamcinolone acetonide, reference compound]
Curvature [1, 8]: 23.15 degrees
Plaque area [1, 8]: 25.35 mm^2
Curvature ([1]; before therapy): 22.69 degrees
Plaque area ([1]; before therapy, mean): 25.23 mm^2

CC(=O)O[C@H](CC(=O)[O-])C[N+](C)(C)C [ALC, acetyl L-carnitine, reference compound]
Plaque area [3, 11]: 11.8 mm^2
Plaque area ([3]; before therapy, mean): 16.3 mm^2
Protection against chemically induced inflammation, in words [6]: not being shared
Activity in the treatment of La Peyronie's disease, in words [7]: significantly more active than tamoxifen

C[N+](C)(C)C[C@H](O)CC(=O)[O-] [L-carnitine]
Protection against chemically induced inflammation, in words [6]: not being shared

CC/C(=C(\c1ccccc1)c1ccc(OCCN(C)C)cc1)c1ccccc1 [Tamoxifen, tamoxifen, reference compound]
Curvature [2, 9]: 16.58 degrees
Plaque area [2, 9]: 9.07 mm^2
Curvature [2, 10]: 18.08 degrees
Plaque area ([2]; before therapy, mean): 11.6 mm^2
Curvature [5, 12]: 23.06 degrees
Plaque area [5, 12]: 25.2 mm^2
Curvature [5, 13]: 24.31 degrees
Plaque area ([5]; before therapy, mean): 26.8 mm^2
